Results on one molecule are retold here after patent US20250195510A1, “NOVEL METHODS” (priority 2022, published 2025).

The test system of assay [1] is Serum cytokine concentration. Nature of the assay: Serum cytokine protein (Multiplex MSD) after acute restraint stress. It counts as in vivo, mouse. To be noted: restraint stress 2 h + Luma 3 mg/kg IP. Here is the method:
Multiplex Assays. In mouse serum, protein levels of IL-1b, IL-6, IL-10 and TNF-alpha are measured using a V-Plex Meso Scale Discovery (MSD) Multiplex spot assay Mouse Neuroinflammation 1 panel (Meso Scale Diagnostics, Rockville, MD). All samples are run in duplicates or triplicates according to manufacturer instructions and analyzed with MSD Discovery Workbench software (Meso Scale Diagnostics).
Restraint Stress Protocol.
Control mice receive vehicle treatment and are returned to their home cage before sample collection. Protein concentration is measured using the Multiplex MSD assay V-Plex technology, normalized to the control group. Results are expressed in pg/mL.

Assay [2] concerns Hippocampal mRNA expression. Nature of the assay: Hippocampal mRNA (qRT-PCR) after acute restraint stress. It is filed as in vivo, mouse. To be noted: restraint stress 2 h + Luma 3 mg/kg IP; control 0, stressed −0.138. Here is the method: Quantitative Real-Time PCR. […] Heavy phase-lock gel tubes enabled separation of phases following the addition of 400 μL chloroform to the sample and centrifugation at 12,000 rpm for 10 minutes at room temperature. RNA is extracted using Qiagen Rneasy kit (Qiagen, Hilden, Germany). For cDNA synthesis, 2 μg of total RNA is used (SuperScript IV Reverse Transcriptase; ThermoFisher Scientific, Waltham, MA). The purity and concentration of RNA is measured with a Nanodrop spectrophotometer; the optical density (OD) 260/280 and OD 260/230 are within 1.8-2.3. In the hippocampus, 4 key markers of pro- and anti-inflammatory cytokines and chemokines (Il1b: ID Mm00434228_m1, Tnfa: ID Mm00443258_m1, Il6: ID Mm00446190_m1, and Il10: ID Mm01288386_ml; ThermoFisher Scientific) are initially chosen for analysis (n=5-12 per group). […] Mm00840904_m1). […] All mRNAs are measured by qRT-PCR on ABI Prism 7900HT system using TaqMan Gene Expression Assays. […] The results are shown in Table 4B as relative change in mRNA levels for each cytokine gene (Il1b, Il6, Tnfa, Il10) normalized to the control group using the Dct method: Using similar procedures as described above, serum corticosterone levels and hippocampal Cldn5 mRNA expression are measured as well (corticosterone is measured using a commercial ELISA kit).
(Real-time PCR tracks product formation cycle by cycle.)

Each structure is given as a SMILES string.

For `CN1CCN2c3c(cccc31)[C@@H]1CN(CCCC(=O)c3ccc(F)cc3)CC[C@@H]12` [Lumateperone, 4-((6bR,10aS)-3-methyl-2,3,6b,9,10,10a-hexahydro-1H-pyrido[3′,4′: 4,5]pyrrolo[1,2,3-de]quinoxaline-8 (7H)-yl)-1-(4-fluorophenyl)-1-butanone], the “Serum IL-1b concentration” value in assay [1] (control 0.7, stressed 1.65) worked out at 0.81 pg/mL. Besides, the “Serum TNF-alpha concentration” value in assay [1] (control 6.75, stressed 10.28) stood at 7.67 pg/mL. Moreover, in assay [1] (control 17.18, stressed 86.78), the “Serum IL-10 concentration” value is given as 70.03 pg/mL. In addition, in assay [1] (control 141.3, stressed 627.4), the “Serum IL-6 concentration” value is 137.7 pg/mL. For the same molecule, the “Hippocampal Cldn5 mRNA expression” value in assay [2] was 0.330.
